The results in this text go back to ChEMBL document CHEMBL4673174, “meta-Substituted benzenesulfonamide: a potent scaffold for the development of metallo-beta-lactamase ImiS inhibitors” (RSC Med Chem, 2020).

≈ marks a conversion by molar mass, not a printed value.

This experiment has as its system Escherichia coli. Put plainly: Antibacterial activity against Escherichia coli BL21 (DE3) assessed as inhibition of bacterial growth incubated for 16 hrs by CLSI broth microdilution method. The class given is functional.

As a reminder, the MIC is the lowest concentration that inhibits growth of the organism. Regarding `C[C@@H](O)[C@H]1C(=O)N2C(C(=O)O)=C(SCCNC=N)C[C@H]12` [IMIPENEM ANHYDROUS], the MIC worked out at 0.25 µg/mL (≈ 0.835 µM).
